One assay deals with T1, IL-17A/F (Homo sapiens, UniProt Q16552+Q96PD4).
T1 construct: purchased R&D Systems
T1 sequence (Q16552 24-155): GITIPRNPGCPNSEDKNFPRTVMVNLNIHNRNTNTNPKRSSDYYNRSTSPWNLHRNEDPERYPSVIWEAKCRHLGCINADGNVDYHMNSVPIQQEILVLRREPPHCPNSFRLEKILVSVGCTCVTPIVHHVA
T1 sequence (Q96PD4 31-163): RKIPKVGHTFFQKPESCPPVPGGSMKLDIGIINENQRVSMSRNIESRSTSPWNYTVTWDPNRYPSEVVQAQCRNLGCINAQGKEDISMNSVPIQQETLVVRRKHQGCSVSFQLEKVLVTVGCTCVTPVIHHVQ
Nature of the assay: IL-17A/F HEK-Blue cell assay (SEAP reporter). It counts as cell-based. As to conditions: HEK-Blue IL-17A reporter cells, IL17A/F 5 ng/mL, 20 hours, SEAP read at A630; read-out: HEK-Blue IL17AF (IC50 for IL-17A/F inhibition).

For another assay, the target named is T2, IL-17A/A (Homo sapiens, UniProt Q16552).
T2 construct: purchased Genscript Z03228
T2 sequence (Q16552 24-155): T1 sequence (Q16552 24-155)
Nature of the assay: IL-17A/A HEK-Blue cell assay (SEAP reporter). It counts as cell-based. As to conditions: HEK-Blue IL-17A reporter cells, IL17A/A 5 ng/mL, 20 hours, SEAP read at A630; read-out: HEK-Blue IL17AA (IC50 for IL-17A/A inhibition).

SMILES strings stand for the structures.

As for `CCn1nccc1C(=O)N[C@H](c1cn2nc(C[C@H]3C[C@@H](C(F)(F)F)CNC3=O)c(C3CCOCC3)nc2n1)[C@H]1CC[C@H](C)CC1` [Compound 78, 1-ethyl-N-((1S)-((1r,4S)-4-methylcyclohexyl)(2-(((3R,5R)-2-oxo-5-(trifluoromethyl)piperidin-3-yl)methyl)-3-(tetrahydro-2H-pyran-4-yl)imidazo[1,2-b][1,2,4]triazin-6-yl)methyl)-1H-pyrazole-5-carboxamide], the IC50 on IL-17A/F and at IL-17A/A was below 0.1 µM each time.

Consider `CCn1nccc1C(=O)N[C@H](c1cn2nc(C[C@H]3C[C@@H](C(F)(F)F)CNC3=O)c(C(C)C)nc2n1)C1CCC(F)(F)CC1` [Compound 87, N-((1S)-(4,4-difluorocyclohexyl)(3-isopropyl-2-(((3R,5R)-2-oxo-5-(trifluoromethyl)piperidin-3-yl)methyl)imidazo[1,2-b][1,2,4]triazin-6-yl)methyl)-1-ethyl-1H-pyrazole-5-carboxamide], for which the IC50 at IL-17A/F is 0.1 to 1 µM; on IL-17A/A it was below 0.1 µM.

With `CCn1nccc1C(=O)N[C@H](c1cn2nc(C[C@H]3C[C@@H](C(F)(F)F)CNC3=O)c(C(C)C)nc2n1)[C@H]1CC[C@H](C)CC1` [Compound 110, 1-ethyl-N-((1S)-(3-isopropyl-2-(((3R,5R)-2-oxo-5-(trifluoromethyl)piperidin-3-yl)methyl)imidazo[1,2-b][1,2,4]triazin-6-yl)((1r,4S)-4-methylcyclohexyl)methyl)-1H-pyrazole-5-carboxamide], the values for the IC50 on IL-17A/F and on IL-17A/A were 0.1 to 1 µM and below 0.1 µM, respectively.

For `CCn1nccc1C(=O)N[C@H](c1cn2nc(C[C@H]3C[C@@H](C(F)(F)F)CNC3=O)c(N(C)C)nc2n1)[C@H]1CCCC(F)(F)C1` [Compound 117, N—((S)—((S)-3,3-difluorocyclohexyl)(3-(dimethylamino)-2-(((3R,5R)-2-oxo-5-(trifluoromethyl)piperidin-3-yl)methyl)imidazo[1,2-b][1,2,4]triazin-6-yl)methyl)-1-ethyl-1H-pyrazole-5-carboxamide], the IC50 was 0.1 to 1 µM at IL-17A/F and below 0.1 µM at IL-17A/A.

In the case of `CCn1nccc1C(=O)N[C@H](c1cn2nc(C[C@H]3C[C@@H](C(F)(F)F)CNC3=O)c(N(C)C)nc2n1)[C@@H]1CCCC(F)(F)C1` [Compound 119, N—((S)—((R)-3,3-difluorocyclohexyl)(3-(dimethylamino)-2-(((3R,5R)-2-oxo-5-(trifluoromethyl)piperidin-3-yl)methyl)imidazo[1,2-b][1,2,4]triazin-6-yl)methyl)-1-ethyl-1H-pyrazole-5-carboxamide], the IC50 is 0.1 to 1 µM at IL-17A/F and below 0.1 µM at IL-17A/A.

As to `CCn1nccc1C(=O)N[C@H](c1cn2nc(C[C@H]3C[C@@H](C(F)(F)F)CNC3=O)c(N3CCO[C@H](C)C3)nc2n1)[C@H]1CCCC(F)(F)C1` [Compound 121, N—((S)—((S)-3,3-difluorocyclohexyl)(3-((R)-2-methylmorpholino)-2-(((3R,5R)-2-oxo-5-(trifluoromethyl)piperidin-3-yl)methyl)imidazo[1,2-b][1,2,4]triazin-6-yl)methyl)-1-ethyl-1H-pyrazole-5-carboxamide], the IC50 on IL-17A/F and on IL-17A/A was below 0.1 µM each time.

As to `CCn1nccc1C(=O)N[C@H](c1cn2nc(C[C@H]3C[C@@H](C(F)(F)F)CNC3=O)c(N3CCO[C@@H](C)C3)nc2n1)[C@H]1CCCC(F)(F)C1` [Compound 123, N—((S)—((S)-3,3-difluorocyclohexyl)(3-((S)-2-methylmorpholino)-2-(((3R,5R)-2-oxo-5-(trifluoromethyl)piperidin-3-yl)methyl)imidazo[1,2-b][1,2,4]triazin-6-yl)methyl)-1-ethyl-1H-pyrazole-5-carboxamide], the IC50 is 0.1 to 1 µM at IL-17A/F and below 0.1 µM at IL-17A/A.

In the case of `CC(C)n1nccc1C(=O)N[C@H](c1cn2nc(C[C@H]3C[C@@H](C(F)(F)F)CNC3=O)c(C3CCOCC3)nc2n1)[C@@H]1CCCC(F)(F)C1` [Compound 127, N-((1S)—((R)-3,3-difluorocyclohexyl)(2-(((3R,5R)-2-oxo-5-(trifluoromethyl)piperidin-3-yl)methyl)-3-(tetrahydro-2H-pyran-4-yl)imidazo[1,2-b][1,2,4]triazin-6-yl)methyl)-1-isopropyl-1H-pyrazole-5-carboxamide], the IC50 was 0.1 to 1 µM at IL-17A/F and below 0.1 µM at IL-17A/A.

Turning to `O=C(N[C@H](c1cn2nc(C[C@H]3C[C@@H](C(F)(F)F)CNC3=O)c(C3CCOCC3)nc2n1)C1CCC(F)(F)CC1)c1nonc1C1CC1` [Compound 136, 4-cyclopropyl-N-((1S)-(4,4-difluorocyclohexyl)(2-(((3R,5R)-2-oxo-5-(trifluoromethyl)piperidin-3-yl)methyl)-3-(tetrahydro-2H-pyran-4-yl)imidazo[1,2-b][1,2,4]triazin-6-yl)methyl)-1,2,5-oxadiazole-3-carboxamide], the IC50 was above 1 µM on IL-17A/F and below 0.1 µM at IL-17A/A.

`CCn1nccc1C(=O)N[C@H](c1cn2nc(C[C@H]3C[C@@H](C(F)(F)F)CNC3=O)c(C3CCOCC3)nc2n1)C(C1CC1)C1CC1` [Compound 137, N-((1S)-2,2-dicyclopropyl-1-(2-(((3R,5R)-2-oxo-5-(trifluoromethyl)piperidin-3-yl)methyl)-3-(tetrahydro-2H-pyran-4-yl)imidazo[1,2-b][1,2,4]triazin-6-yl)ethyl)-1-ethyl-1H-pyrazole-5-carboxamide]: the IC50 is 0.1 to 1 µM at IL-17A/F and below 0.1 µM on IL-17A/A.

As for `CCn1nccc1C(=O)N[C@H](c1cn2nc(C[C@H]3C[C@H](C(F)(F)F)CNC3=O)c(C3CCOCC3)nc2n1)C1CCC(F)(F)CC1` [Compound 140, N-((1S)-(4,4-difluorocyclohexyl)(2-(((3R,5S)-2-oxo-5-(trifluoromethyl)piperidin-3-yl)methyl)-3-(tetrahydro-2H-pyran-4-yl)imidazo[1,2-b][1,2,4]triazin-6-yl)methyl)-1-ethyl-1H-pyrazole-5-carboxamide], the figures for the IC50 on IL-17A/F and on IL-17A/A were 0.1 to 1 µM and below 0.1 µM, respectively.

In the case of `CCn1nccc1C(=O)N[C@H](c1cn2nc(C[C@H]3C[C@@H](C(F)(F)F)CNC3=O)c(CC3CCOCC3)nc2n1)C1CCC(F)(F)CC1` [Compound 141, N-((1S)-(4,4-difluorocyclohexyl)(2-(((3R,5R)-2-oxo-5-(trifluoromethyl)piperidin-3-yl)methyl)-3-((tetrahydro-2H-pyran-4-yl)methyl)imidazo[1,2-b][1,2,4]triazin-6-yl)methyl)-1-ethyl-1H-pyrazole-5-carboxamide], the IC50 on IL-17A/F and on IL-17A/A was below 0.1 µM in each case.

With `CCn1nccc1C(=O)N[C@H](c1cn2nc(C[C@H]3C[C@@H](C(F)(F)F)CNC3=O)c(CN3CCOCC3)nc2n1)C1CCC(F)(F)CC1` [Compound 142, N—((S)-(4,4-difluorocyclohexyl)(3-(morpholinomethyl)-2-(((3R,5R)-2-oxo-5-(trifluoromethyl)piperidin-3-yl)methyl)imidazo[1,2-b][1,2,4]triazin-6-yl)methyl)-1-ethyl-1H-pyrazole-5-carboxamide], the IC50 was above 1 µM at IL-17A/F and below 0.1 µM at IL-17A/A.

`CCn1nccc1C(=O)N[C@H](c1cn2nc(C[C@H]3C[C@@H](C(F)(F)F)CNC3=O)c(N(C)C3CC3)nc2n1)C1CCC(F)(F)CC1` [Compound 143, N—((S)-(3-(cyclopropyl(methyl)amino)-2-(((3R,5R)-2-oxo-5-(trifluoromethyl)piperidin-3-yl)methyl)imidazo[1,2-b][1,2,4]triazin-6-yl)(4,4-difluorocyclohexyl)methyl)-1-ethyl-1H-pyrazole-5-carboxamide]: the IC50 is 0.1 to 1 µM at IL-17A/F and below 0.1 µM on IL-17A/A.

On to `CCc1nocc1C(=O)N[C@H](c1cn2nc(C[C@H]3C[C@@H](C(F)(F)F)CNC3=O)c(C3CCOCC3)nc2n1)C1CCC(F)(F)CC1` [Compound 146, N-((1S)-(4,4-difluorocyclohexyl)(2-(((3R,5R)-2-oxo-5-(trifluoromethyl)piperidin-3-yl)methyl)-3-(tetrahydro-2H-pyran-4-yl)imidazo[1,2-b][1,2,4]triazin-6-yl)methyl)-3-ethylisoxazole-4-carboxamide], for which the IC50 on IL-17A/F was 0.1 to 1 µM; at IL-17A/A, below 0.1 µM.

On to `CC(C)n1nccc1C(=O)N[C@H](c1cn2nc(C[C@H]3C[C@@H](C(F)(F)F)CNC3=O)c(C3CCOCC3)nc2n1)C1CCC(F)(F)CC1` [Compound 147, N-((1S)-(4,4-difluorocyclohexyl)(2-(((3R,5R)-2-oxo-5-(trifluoromethyl)piperidin-3-yl)methyl)-3-(tetrahydro-2H-pyran-4-yl)imidazo[1,2-b][1,2,4]triazin-6-yl)methyl)-1-isopropyl-1H-pyrazole-5-carboxamide], for which the values for the IC50 on IL-17A/F and at IL-17A/A were 0.1 to 1 µM and below 0.1 µM, respectively.

`CCc1nonc1C(=O)N[C@H](c1cn2nc(C[C@H]3C[C@@H](C(F)(F)F)CNC3=O)c(C3CCOCC3)nc2n1)C1CCC(F)(F)CC1` [Compound 149, N-((1S)-(4,4-difluorocyclohexyl)(2-(((3R,5R)-2-oxo-5-(trifluoromethyl)piperidin-3-yl)methyl)-3-(tetrahydro-2H-pyran-4-yl)imidazo[1,2-b][1,2,4]triazin-6-yl)methyl)-4-ethyl-1,2,5-oxadiazole-3-carboxamide]: the figures for the IC50 on IL-17A/F and at IL-17A/A were 0.1 to 1 µM and below 0.1 µM, respectively.

The record behind these values is US20260226068A1, “IMIDAZOTRIAZINE IL-17A MODULATORS AND USES THEREOF” (DICE ALPHA, INC., priority 2023, published 2026).
